Data: paper PMC12418948, “Intranasal Administration of KCNN2 Blocking Peptide Improves Deficits in Cognitive Flexibility in Mouse Model of Fetal Alcohol Spectrum Disorders” (International Journal of Neuropsychopharmacology, 2025)
Entries after “also recorded” stand apart in the source; their conditions may differ. Positions of bridges follow the written chain, without caps; N, C: chain ends. Non-standard residues stand in square brackets, D forms with d. Residues, ends and D or L forms follow the SMILES beside them. Dab = NCC[C@H](N)C(=O)O

Columns and labels:
[1] = Physiological monitoring (PhysioSuite) after intranasal administration; assay type: in vivo, mouse (CD-1)
Description: Lei-Dab7 or biotinylated Lei-Dab7 (Smartox Biotechnology, France) was dissolved in PBS and administered to mice intranasally at 3.0 μg/kg/day. Vehicle (PBS) only was administered as the control. Briefly, the mouse was held softly on the neck to avoid any movement during drug administration. A 20-μL pipette was used to deliver 3 to 5 μL drug at a time. The tip was placed close enough to the mouse’s nostril at a 45-degree angle, and the drug was slowly ejected into the nostril. The mouse was let to inhale for 3 to 5 seconds and then left in a cage for 5 minutes to fully inhale the drug. This process was repeated until the required amount of drug was administered in a few minutes. The alternate nostril was used to deliver the drug each time to increase the efficiency of administration. Successful delivery by this method was confirmed by detecting biotinylated Lei-Dab7 in the brain, which was collected and immersion-fixed with 4% PFA at 15 minutes after intranasal administration using ABC (Thermo Fisher Scientific, NY) and TSA (PerkinElmer, MA) kits. For the analysis on the effect of treatment, Lei-Dab7 was administered daily throughout the reversal learning test phase of the water T-maze test. Physiological monitoring was recorded at 30 minutes and 24 hours post administration by using PhysioSuite (Kent Scientific, CT).
Supplementary Figure 4. […] Pulse oximetry, heart rate, and body temperature were recorded at 30 minutes and 24 hours post administration of vehicle control (30 minutes only) or Lei-Dab7 (30 minutes, 24 hours). Siblings from the same mother were used as the control for the Lei-Dab7 treatment. […] Data are presented in box plots. The line within the box indicates the median, and the upper and lower edges of the box represent the 25th and 75th percentiles, respectively. The upper and lower whisker boundaries indicate the 10th and 90th percentiles, respectively, and dots indicate outliers.

human KCNN2 = human KCNN2 (Homo sapiens, UniProt Q9H2S1); assay: Thallium flux assay, KCNN2 channel block; assay type: cell-based
Description: The effect of tamapin and Lei-Dab7 to block the KCNN2 channel was assessed by the thallium flux (potassium ion surrogate) assay using FLIPR Potassium Assay KIT (Molecular Devices, CA) and a FLIPR TETRA fluorescence imaging plate reader (Molecular Devices, CA). Human embryonic kidney (HEK) 293 cell line stably expressing human KCNN2 (Charles River, MA) were plated on BioCoat Poly-D-Lysine 384-well Black/Clear Plates (BD Biosciences, NJ) at 15 000 to 30 000 cells per well and incubated at 37°C overnight or until cells form near confluent monolayer. A baseline fluorescence was recorded during the pre-incubation period, followed by activation in the stimulus buffer (K^+-free buffer with 5 mM Tl^+). The effects of tamapin and Lei-Dab7 on KCNN2 to inhibit KCNN2 channel were evaluated at 4 different concentrations (n = 4) each, based on fluorescence changes due to the treatments. The signal elicited by the respective positive control agonist [1 μM A23187 (Tocris, UK)] was set to 0% inhibition, and the signal in the presence of the respective positive control antagonists [3 μM UCL1684 (Tocris, UK)] was set to 100% inhibition. The IC50 values were defined as the concentration at which the percent inhibition equals 50.
To determine the dose of Lei-Dab7 to be tested, we compared the effect of Lei-Dab7 and tamapin in blocking human KCNN2 expressed in HEK293 cells using a thallium-based potassium ion channel assay. […] Based on the effective dose of tamapin in mitigating motor skill–learning deficits in PAE mice (15 μg/kg body weight via i.p.)[17] and higher brain uptake of therapeutics by intranasal delivery than by i.p. delivery, we chose a dose of 3.0 μg/kg body weight to test the effect of intranasal administration of Lei-Dab7.
Supplementary Figure 3. Concentration-response relationships of Lei-Dab7 and Tamapin on the Inhibition of KCNN2 channels. (A, B) The concentration-response relationships of Lei-Dab7 (A) and Tamapin (B) on the inhibition of KCNN2 (SK2) channels examined by the thallium flux assay are presented. […]

[2] = P40, 30 minutes and 24 hours post administration, one-way ANOVA, n = 6 animals from 3 litters per group

human KCNN2, sequence (Q9H2S1 whole entry): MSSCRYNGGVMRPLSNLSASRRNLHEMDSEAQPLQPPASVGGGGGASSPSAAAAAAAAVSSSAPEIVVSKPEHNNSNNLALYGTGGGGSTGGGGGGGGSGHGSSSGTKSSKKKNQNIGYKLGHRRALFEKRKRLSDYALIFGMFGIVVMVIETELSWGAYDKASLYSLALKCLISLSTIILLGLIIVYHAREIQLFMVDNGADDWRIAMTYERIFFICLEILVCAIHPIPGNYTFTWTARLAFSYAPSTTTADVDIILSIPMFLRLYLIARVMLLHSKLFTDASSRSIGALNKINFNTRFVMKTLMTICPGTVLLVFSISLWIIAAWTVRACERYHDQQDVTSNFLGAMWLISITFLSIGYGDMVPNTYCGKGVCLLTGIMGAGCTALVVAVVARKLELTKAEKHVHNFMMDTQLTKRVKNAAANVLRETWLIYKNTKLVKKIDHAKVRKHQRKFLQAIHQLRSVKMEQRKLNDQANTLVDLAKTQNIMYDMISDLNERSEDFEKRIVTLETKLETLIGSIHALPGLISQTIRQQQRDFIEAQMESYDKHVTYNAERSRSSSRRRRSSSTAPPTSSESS

Compound: CC[C@H](C)[C@@H]1NC(=O)[C@@H]2CSSC[C@H](NC(=O)[C@H](Cc3ccccc3)NC(=O)[C@H](C)N)C(=O)N[C@@H](CC(N)=O)C(=O)N[C@@H](CC(C)C)C(=O)N[C@@H](CCCNC(=N)N)C(=O)N[C@@H](CCN)C(=O)N[C@H]3CSSC[C@H](NC(=O)[C@H](CCCCN)NC(=O)[C@H](CC(=O)O)NC(=O)CNC1=O)C(=O)N[C@@H](CCC(=O)O)C(=O)N[C@H](C(=O)N[C@H](C(=O)N[C@@H](CCCCN)C(=O)N[C@@H](Cc1c[nH]cn1)C(N)=O)C(C)C)CSSC[C@H](NC(=O)[C@H](CO)NC(=O)[C@H](CC(C)C)NC(=O)[C@H](CCC(N)=O)NC3=O)C(=O)N[C@@H](CCCNC(=N)N)C(=O)N[C@@H](CO)C(=O)N[C@@H](CC(C)C)C(=O)NCC(=O)N[C@@H](CC(C)C)C(=O)N[C@@H](CC(C)C)C(=O)NCC(=O)N[C@@H](CCCCN)C(=O)N2 [Lei-Dab7, Leiurotoxin-1 Dab7] (H-AFCNLR[Dab]CQLSCRSLGLLGKCIGDKCECVKH-NH2; disulfide 3-21, 8-26, 12-28)
- toxicity, 3 primary physiological measures ([1]; 3.0 μg/kg intranasal, pulse oximetry, heart rate, body temperature, 30 minutes or 24 hours post administration): without apparent acute physiological adverse effects; also recorded: No severe toxicity
- body temperature vs vehicle [1, 2]: no statistically significant differences
- heart rate vs vehicle [1, 2]: no statistically significant differences
- pulse oximetry vs vehicle [1, 2]: no statistically significant differences
- adverse effects in control animals ([1]; intranasal, control animals (Figs. 5, S4)): no apparent adverse effects in control animals
- IC50 (human KCNN2; HEK293 stably expressing human KCNN2, thallium flux, FLIPR Potassium Assay Kit, FLIPR TETRA, 4 concentrations, n = 4, 0% = 1 μM A23187, 100% = 3 μM UCL1684): 0.72 µM
- IC50 of Lei-Dab7 relative to tamapin (times higher) (human KCNN2; ratio of IC50 Lei-Dab7 to IC50 tamapin, human KCNN2 in HEK293): > 10 times
